Results published in patent publication US8343912B2, “Antibiotic compositions for the treatment of gram negative infections” (priority 2008, dated 2013).
Values after ≈ are worked out from the molar mass of the structure shown. Marks after values point to notes of the source that are not given here. Numbered stars: 1 amine (or outer) side, 2 acyl side, 3 side chain; on linkers, the order of the positions; unused ones are H or OH. Bridge positions count the residues as written; N and C are the ends. Square brackets hold non-standard residues; d marks the D form. Peptide text beside a SMILES is read from it. * marks the point of attachment. NH(3-Cl-phenyl) = Clc1cccc(N*)c1; NH(2-ClPh) = Clc1ccccc1N*; Dab = NCC[C@H](N)C(=O)O; CO = O=C([*:1])[*:2]

Columns and labels:
Enterobacter = assay: MIC90, broth microdilution, panel of Gram negative clinical isolates; format: cell-based; conditions: 20 strains; some strains multi-drug resistant
Description: (§1) To evaluate the potency and spectrum of compounds of Formula (I), (i.e., Compounds designated 5 and 6), a study was conducted that put together a panel of 455 Gram negative strains, which included multi-drug resistant clinical isolates selected from various surveillance programs. Table 3A lists the strains that were included in the study and the activity of Compound 5, Compound 6, and colistin (polymyxin E, abbreviated PME). Strains with acquired resistance to colistin and/or carbapenems and/or broad spectrum cephalosporins were pre-selected and included in all organism groups evaluated.
(§2) MIC testing was performed according to Clinical and Laboratory Standards Institute (CLSI) M7-A7 (2006) broth microdilution methods. Unless otherwise indicated, MIC values are provided in units of micrograms per milliliter.
(§3) One day prior to testing, individual colonies were isolated by streaking onto rich, non-selective Tryptic Soy agar with 5% lysed sheeps blood (TSAB) with incubation at 35-37° C. for 18-24 hours.
(§4) Cultures were prepared by touching 3-5 colonies into 3 mL of Cation adjusted Mueller Hinton Broth (caMHB) in a 14 mL tube (CaMHB was prepared and sterilized according to manufacturer's specifications). Cultures were grown at 37° C. 200 rpm for approximately four hours prior to density adjustment for addition to the MIC assay.
(§5) OD600 of growing cultures was measured and adjusted to approximately 10^5 colony forming units per mL (CFU/mL) in caMHB for MIC inoculation (approximately OD600 0.001).
(§6) Diluted cultures were used to inoculate 50 μL per well in broth microdilution assays (final volume 100 μl per well; compounds were prepared in two-fold dilutions).
(§7) Plates were incubated 16-20 hrs at 37° C., with shaking at 200 rpm.
(§8) OD600 was determined for all wells. Growth was defined as OD600>0.1. MICs were defined as the lowest concentration producing no visible turbidity (OD600<0.1).

Citrobacter spp. = assay: as above; format: cell-based; conditions: 20 strains; some strains multi-drug resistant
Description: as §1, §2, §3, §4, §5, §6, §7, §8

Acinetobacter spp = assay: as above; format: cell-based; conditions: 81 strains
Description: as §1, §2, §3, §4, §5, §6, §7, §8

[1] = test system: Rat kidney proximal tubule cells; assay: Cell culture cytotoxicity assay (ATP bioluminescence, LLC-PK1); format: cell-based; conditions: LLC-PK1, 24 hours, ATP readout
Description: (§9) Day 1: 1×10^5 to 2×10^5 cellswere inoculated (Cell line: LLC-PK1) per flask, containing 4 mL/T25 flask of medium DMEM-F12 (50/50) media supplemented with 10% FBS (Fetal Bovine Serum). The cells were then incubated at 37° C., 5% CO2, 80% RH.
(§10) Day 4: The cell cultures were examined to determine 80% confluency. To trypsinize of the 80% confluent flasks, 4 mL of DMEM-F12-10% FBS media was prepared per flask. The media was aspirated from the flask and 5 mL of Versene was added to rinse the flask. The Versene was aspirated and 2 mL of triple Express solution (trypsin solution) was added. The cells were incubated for 5 min at room temperature and examined via microscopy for the rounding of the cells and their detachment. To speed up the reaction, the flask can be incubated at 37° C. for 3 minutes. 4 mL of media (DMEM-F12-10%FBS) was added to stop the reaction. Using a 5 mL pipette, the completed reaction was pipetted up and down to ensure that the cells were properly detached from the flask and from each others. The cell number was counted using a hemocytometer slide. 100 μL of cell suspension was transferred to a tube and 100 μL of Trypan Blue was added. Inoculum for 96 well is 10,000 cells per well. For one 96 well plate, 26.3 μL×110 well=2893 μL total. 2.9 mL of cell suspension was mixed with 8.1 mL of media DMEM-F12-10% FBS and 100 μL was distributed to each well using a multichannel pipetter. The plate was then Incubated for 24 h at 37° C.
(§11) Day 5: DMEM-F12 (no FBS) medium was dispensed into tubes with the test article to achieve final concentrations of […]. The 96 well plate was taken off the incubator and media was removed from each well using multichannel pipetter. 80 μL of serially diluted compounds of Formula (I) was added to each well. Every set of concentration was done in triplicate. Media and positive controls were added to each plate and the plates were incubated for 24 hours at 37° C.
(§12) Day 6: The plates were taken from the incubator, the media was removed from each well, and 100 μL of fresh media DMEM-F12 (this is equivalent to a rinse and the media can be replaced with PBS) was added. The media is then removed and 80 μL of cell lysis solution is added. After 5 minutes, 80 μL of sterile filtered high quality water was added to each well. Using a white or black 96 well reaction plate, 80 μL of 25× diluted ATP mix reagent (Sigma Bioluminescent Somatic Cell Assay Kit [cat #FL-ASC]) was added into one column. 80 μL of diluted ATP standards (dilutions used: 250, 500, 1000, 2000 and 4000) was added and the plate was read immediately in the topcount with a 2 second read time. In another white or black 96 well reaction plate, 80 μL of 25× diluted ATP mix reagent (plate A) was added and 80 μL of lysis-water solution was transferred to each column of plate A. The plate was then read immediately in the topcount with a 2 second read time. This process was repeated for next consecutive plate and the EC50 for certain compounds of Formula I were calculated and provided in Table 4.

[2] = as above; format: cell-based, rat; conditions: read-out: EC50, rat kidney proximal tubule cell culture cytotoxicity assay
Description: as §9, §10, §11, §12

E. coli = assay: MIC90, broth microdilution, panel of Gram negative clinical isolates; format: cell-based, Escherichia coli; conditions: 80 strains; some strains multi-drug resistant
Description: as §1, §2, §3, §4, §5, §6, §7, §8

P. aeruginosa [3] = assay: as above; format: cell-based, Pseudomonas aeruginosa; conditions: for MIC90 P. aeruginosa: 100 strains
Description: as §1, §2, §3, §4, §5, §6, §7, §8

P. aeruginosa [4] = assay: MIC, broth microdilution (Table 4); format: cell-based, Pseudomonas aeruginosa; conditions: for MIC P. aeruginosa: Table 4
Description: as §2, §3, §4, §5, §6, §7, §8

K. pneumonia = assay: MIC90, broth microdilution, panel of Gram negative clinical isolates; format: cell-based, Klebsiella pneumoniae; conditions: 81 strains; some strains multi-drug resistant
Description: as §1, §2, §3, §4, §5, §6, §7, §8

S. maltophilia = assay: as above; format: cell-based, Stenotrophomonas maltophilia; conditions: 25 strains
Description: as §1, §2, §3, §4, §5, §6, §7, §8

P. aeruginosa #44 = assay: MIC, broth microdilution; format: cell-based, Pseudomonas aeruginosa; conditions: Table 5; range of repeated tests
Description: as §2, §3, §4, §5, §6, §7, §8
(§13) P. aeruginosa #44 or K. pneumoniae #21 were grown in cation adjusted Mueller Hinton Broth (caMHB) (catalog #B12322; Fisher Scientific, Pittsburgh, Pa.) at 37° C. MIC testing was performed according to Clinical and Laboratory Standards Institute [CLSI, formerly National Committee for Clinical Laboratory Standards (NCCLS), Wayne, Pa.] guidelines for broth microdilution.
(§14) MIC testing was performed according to CLSI (formerly NCCLS) guidelines for broth microdilution.

patients = conditions: human, in vivo; cited from earlier work
[5] = test system: Acinetobacter baumannii 1570; assay: MIC, broth microdilution; format: cell-based; conditions: Table 8; range of repeated tests
Description: as §2, §3, §4, §5, §6, §7, §8
as §13, with “A. baumannii #1570” for “P. aeruginosa #44 or K. pneumoniae #21”
as §14

Compound	MIC90 Enterobacter (Enterobacter)	MIC90 Citrobacter spp. (Citrobacter spp.)	MIC90 Acinetobacter spp (Acinetobacter spp) [micrograms/mL]	EC50 Rat kidney proximal tubule cells [1] [micrograms/ml]	EC50 [2] [µg/mL]	MIC90 E. coli (E. coli)	MIC90 P. aeruginosa (P. aeruginosa [3]) [micrograms/mL]	decrease in activity against colistin susceptible P. aeruginosa (P. aeruginosa [3]; relative to colistin / Compound 5)	activity against bacteria compared with polymyxin B (P. aeruginosa [4])	MIC P. aeruginosa (P. aeruginosa [4]) [micrograms/ml]	MIC90 K. pneumonia (K. pneumonia)	MIC90 S. maltophilia (S. maltophilia) [micrograms/mL]	MIC against P. aeruginosa #44 (P. aeruginosa #44)	overall incidence of neurotoxicity or neuropathy (patients) [%]	MIC against A. baumannii #1570 [5] [micrograms/ml]
CC[C@H](C)[C@@H]1NC(=O)[C@@H](Cc2ccccc2)NC(=O)[C@H](CCN)NC(=O)[C@@H](NC(=O)[C@H](CCN)NC(=O)[C@@H](NC(=O)[C@H](CCN)NC(=O)Nc2ccccc2Cl)[C@@H](C)O)CCNC(=O)[C@H]([C@@H](C)O)NC(=O)[C@H](CCN)NC(=O)[C@H](CCN)NC1=O [Compound 6] ({NH(2-ClPh)-CO}-[Dab]T[Dab][Dab][Dab][dF]I[Dab][Dab]T; lactam 4-C)	>16 micrograms/mL	1 micrograms/mL	2	>1000	> 1000	4 micrograms/mL	8	approximately 4 fold	as active or more active	1	4 micrograms/mL	16			
CC(C)C[C@@H]1NC(=O)[C@@H](Cc2ccccc2)NC(=O)[C@H](CCN)NC(=O)[C@@H](NC(=O)[C@H](CCN)NC(=O)[C@@H](NC(=O)[C@H](CCN)NC(=O)Nc2cccc(Cl)c2)[C@@H](C)O)CCNC(=O)[C@H]([C@@H](C)O)NC(=O)[C@H](CCN)NC(=O)[C@H](CCN)NC1=O [Compound 4] ({NH(3-Cl-phenyl)-CO}-[Dab]T[Dab][Dab][Dab][dF]L[Dab][Dab]T; lactam 4-C)					691 (≈ 568 µM)				as active or more active	2					
colistin [reference compound]	>64* micrograms/mL	0.5* micrograms/mL	4			2* micrograms/mL	2				4* micrograms/mL	16	2-4 micrograms/ml	7.3	2
